The text below walks through data of ChEMBL document CHEMBL3232889, “Identification of novel SIRT2-selective inhibitors using a click chemistry approach” (Bioorg Med Chem Lett, 2014).

Each structure is given as a SMILES string. The source made the active and inactive calls.

As usually defined, the IC50 is the concentration at which inhibition is half-maximal.

For assay [1], the target named is T1, NAD-dependent protein deacetylase sirtuin-2 (Homo sapiens) (UniProt Q8IXJ6).
T1 sequence (whole entry): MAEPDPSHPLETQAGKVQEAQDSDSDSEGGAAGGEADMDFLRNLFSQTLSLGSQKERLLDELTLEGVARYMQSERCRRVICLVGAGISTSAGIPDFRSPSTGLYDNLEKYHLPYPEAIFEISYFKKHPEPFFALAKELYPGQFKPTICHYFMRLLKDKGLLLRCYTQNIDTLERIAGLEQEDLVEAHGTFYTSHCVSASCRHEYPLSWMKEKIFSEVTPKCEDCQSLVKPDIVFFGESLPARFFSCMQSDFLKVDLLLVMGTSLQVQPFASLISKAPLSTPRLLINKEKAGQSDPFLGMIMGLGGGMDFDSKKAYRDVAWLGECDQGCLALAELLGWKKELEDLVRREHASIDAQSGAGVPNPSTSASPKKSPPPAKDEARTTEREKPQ
The note with it: at 10 µM.
Description: Inhibition of human recombinant SIRT2 using Fluor-de-Lys as substrate at 10 uM incubated for 60 mins prior to substrate addition measured after 60 mins by fluorometric analysis

Assay [2] deals with T2, NAD-dependent protein deacetylase sirtuin-3, mitochondrial (Homo sapiens, UniProt Q9NTG7).
T2 sequence (Q9NTG7 whole entry): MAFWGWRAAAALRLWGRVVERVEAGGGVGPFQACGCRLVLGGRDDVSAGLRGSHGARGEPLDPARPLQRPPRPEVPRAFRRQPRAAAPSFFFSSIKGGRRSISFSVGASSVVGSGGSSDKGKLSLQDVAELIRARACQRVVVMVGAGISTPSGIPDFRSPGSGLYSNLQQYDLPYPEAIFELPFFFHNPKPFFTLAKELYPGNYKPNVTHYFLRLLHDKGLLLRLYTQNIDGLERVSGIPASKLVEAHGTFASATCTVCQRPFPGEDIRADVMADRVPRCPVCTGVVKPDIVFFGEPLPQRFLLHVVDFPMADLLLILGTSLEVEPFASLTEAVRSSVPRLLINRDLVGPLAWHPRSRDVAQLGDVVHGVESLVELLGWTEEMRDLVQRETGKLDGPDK
The assay can be described thus: Inhibition of human recombinant SIRT3 using Fluor-de-Lys as substrate incubated for 60 mins prior to substrate addition measured after 60 mins by fluorometric analysis.

The target of assay [3] is T3, NAD-dependent protein deacetylase sirtuin-1 (Homo sapiens) (UniProt Q96EB6).
T3 sequence (whole entry): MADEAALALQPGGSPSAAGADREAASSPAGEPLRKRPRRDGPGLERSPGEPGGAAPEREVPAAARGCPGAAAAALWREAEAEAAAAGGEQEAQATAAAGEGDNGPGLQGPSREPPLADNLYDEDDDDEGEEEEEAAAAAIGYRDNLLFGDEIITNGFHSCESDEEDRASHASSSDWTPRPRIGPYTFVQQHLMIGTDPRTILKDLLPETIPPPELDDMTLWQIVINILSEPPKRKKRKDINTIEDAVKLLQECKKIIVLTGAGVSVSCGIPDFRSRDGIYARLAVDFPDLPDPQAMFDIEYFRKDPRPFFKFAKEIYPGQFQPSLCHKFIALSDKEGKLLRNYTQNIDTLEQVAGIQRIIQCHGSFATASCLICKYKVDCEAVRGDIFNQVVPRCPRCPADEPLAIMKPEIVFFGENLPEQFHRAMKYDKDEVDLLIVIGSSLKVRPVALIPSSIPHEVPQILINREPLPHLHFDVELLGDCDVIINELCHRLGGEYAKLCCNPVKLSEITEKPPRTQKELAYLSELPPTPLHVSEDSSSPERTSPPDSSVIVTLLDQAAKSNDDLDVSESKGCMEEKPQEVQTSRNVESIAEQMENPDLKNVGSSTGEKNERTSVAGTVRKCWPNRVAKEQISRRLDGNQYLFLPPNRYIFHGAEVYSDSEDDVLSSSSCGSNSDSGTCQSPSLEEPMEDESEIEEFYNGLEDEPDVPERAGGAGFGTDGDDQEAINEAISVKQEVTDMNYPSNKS
Nature of the assay: Inhibition of human recombinant SIRT1 using Fluor-de-Lys as substrate at 10 uM incubated for 60 mins prior to substrate addition measured after 60 mins by fluorometric analysis.

Assay [4] has as its target T4, NAD-dependent protein deacetylase sirtuin-3, mitochondrial (Homo sapiens) (UniProt Q9NTG7).
T4 sequence (whole entry): T2 sequence (Q9NTG7 whole entry)
The assay can be described thus: Inhibition of human recombinant SIRT3 using Fluor-de-Lys as substrate at 10 uM incubated for 60 mins prior to substrate addition measured after 60 mins by fluorometric analysis.

The target of assay [5] is T5, NAD-dependent protein deacetylase sirtuin-2 (Homo sapiens, UniProt Q8IXJ6).
T5 sequence (Q8IXJ6 whole entry): T1 sequence (whole entry)
The assay can be described thus: Inhibition of human recombinant SIRT2 using Fluor-de-Lys as substrate incubated for 60 mins prior to substrate addition measured after 60 mins by fluorometric analysis.

Assay [6] addresses T6, NAD-dependent protein deacetylase sirtuin-1 (Homo sapiens, UniProt Q96EB6).
T6 sequence (Q96EB6 whole entry): T3 sequence (whole entry)
Nature of the assay: Inhibition of human recombinant SIRT1 using Fluor-de-Lys as substrate incubated for 60 mins prior to substrate addition measured after 60 mins by fluorometric analysis.

For the molecule `Cc1ccc(N=[N+]=[N-])cc1`, in assay [1], the inhibition result is “Active”. Consider `[N-]=[N+]=NCCc1ccccc1`, for which, in assay [1], the inhibition entry is “Active”. The same measure, in the same setting: under `COc1ccc(CCN=[N+]=[N-])cc1` stands “Active”; under `[N-]=[N+]=NCc1ccc2ccccc2c1`, “Active”. Same read-out and setting: for `[N-]=[N+]=Nc1ccc(F)cc1` the value was “Active”. The same measure, in the same setting: under `COc1cccc(CCN=[N+]=[N-])c1` stands “Active”; under `[N-]=[N+]=NC[S+]([O-])c1ccccc1` (stereo unspecified), “Active”; under `[N-]=[N+]=NCCc1c[nH]c2ccccc12`, “Active”. On to `[N-]=[N+]=NCCc1ccc(C(F)(F)F)cc1`, for which, in assay [1], the inhibition result is “Active”.

As for `[N-]=[N+]=NCCc1ccccn1`, the inhibition entry in assay [1] is “Active”. Still for that read-out and setting: under `[N-]=[N+]=NCC12CC3CC(CC(C3)C1)C2` stands “Active”; under `[N-]=[N+]=Nc1ccc(I)cc1`, “Active”; under `[N-]=[N+]=NCCc1cccc(C(F)(F)F)c1`, “Active”. For `[N-]=[N+]=NCCc1cccc2ccccc12`, the inhibition entry in assay [1] is “Active”. Same read-out and setting: for `[N-]=[N+]=Nc1ccccc1` the value was “Active”; for `[N-]=[N+]=NCC(=O)c1ccccc1`, “Active”. The same measure, in the same setting: for `[N-]=[N+]=NCCC12CC3CC(CC(C3)C1)C2` the value was “Active”; for `[N-]=[N+]=NCCc1ccc(Cl)cc1`, “Active”. Still for that read-out and setting: for `[N-]=[N+]=NCc1cccc2ccccc12` the value was “Active”; for `[N-]=[N+]=Nc1ccc(N)cc1`, “Active”; for `C#Cc1ccc(Nc2ccccc2C(N)=O)cc1`, “Active”. Take `[N-]=[N+]=NCCN1CCOCC1`: in assay [1], the inhibition entry was “Active”. With `Cc1ccc(CCN=[N+]=[N-])cc1`, the inhibition entry in assay [1] is “Active”. Same read-out and setting: under `[N-]=[N+]=NCCc1ccccc1[N+](=O)[O-]` stands “Active”; under `[N-]=[N+]=Nc1ccc(O)cc1`, “Active”; under `[N-]=[N+]=NCCc1ccc([N+](=O)[O-])cc1`, “Active”. With `Cc1cccc(C)c1NC(=O)CN=[N+]=[N-]`, in assay [1], the inhibition entry is “Active”. Still for that read-out and setting: under `[N-]=[N+]=NCCc1cccc(Cl)c1` stands “Active”. Turning to `[N-]=[N+]=NCCC1CCCC1`, in assay [1], the inhibition result was “Active”. `NC(=O)c1ccccc1Nc1ccc(-c2cn(Cc3ccccc3)nn2)cc1`: the 50% inhibitory concentration (IC50) in assay [2] is greater than 100 µM; in assay [5], 6.3 µM; in assay [6], greater than 100 µM. The inhibition entry in assay [3] and in assay [4] was “inactive” in each case. Besides, the inhibition entry in assay [1] was “Active”. Turning to `[N-]=[N+]=Nc1cccc2ccccc12`, in assay [1], the inhibition entry was “Active”. On the same count and under the same terms, for `[N-]=[N+]=NCCc1ccccc1Cl` the value was “Active”; for `Cc1ccc(N=[N+]=[N-])cc1C`, “Active”. Consider `[N-]=[N+]=Nc1ccccc1-c1ccccc1`, for which the inhibition entry in assay [1] was “Active”. Consider `[N-]=[N+]=NCSc1ccccc1`, for which the inhibition result in assay [1] was “Active”. The same measure, in the same setting: for `[N-]=[N+]=NCc1ccccc1` the value was “Active”; for `[N-]=[N+]=NCc1ccc(-c2ccccc2)cc1`, “Active”.

On to `Cc1ccccc1CCN=[N+]=[N-]`, for which the inhibition result in assay [1] is “Active”. Still for that read-out and setting: under `COc1ccc(N=[N+]=[N-])cc1` stands “Active”; under `[N-]=[N+]=NCS(=O)(=O)c1ccccc1`, “Active”; under `COc1ccccc1CCN=[N+]=[N-]`, “Active”. Regarding `[N-]=[N+]=NCCc1ccc(F)cc1`, in assay [1], the inhibition entry is “Active”. The same measure, in the same setting: under `[N-]=[N+]=NCCc1cccc(F)c1` stands “Active”; under `COc1ccc(CN=[N+]=[N-])cc1`, “Active”; under `[N-]=[N+]=NCCCc1ccccc1`, “Active”. For `[N-]=[N+]=NCCCCCc1ccccc1`, the inhibition result in assay [1] was “Active”. Same read-out and setting: for `[N-]=[N+]=NCC1CCCCC1` the value was “Active”; for `[N-]=[N+]=NCC(=O)Nc1ccc(F)cc1`, “Active”. The same measure, in the same setting: for `[N-]=[N+]=NCCc1ccc2ccccc2c1` the value was “Active”; for `[N-]=[N+]=NCc1cccc(-c2ccccc2)c1`, “Active”. Regarding `[N-]=[N+]=NCCc1ccsc1`, in assay [1], the inhibition result is “Active”. On the same count and under the same terms, under `[N-]=[N+]=NCCC1CCCCC1` stands “Active”.

Consider `Cc1cccc(CCN=[N+]=[N-])c1`, for which the inhibition entry in assay [1] is “Active”.

`[N-]=[N+]=NCCc1ccccc1C(F)(F)F`: in assay [1], the inhibition entry was “Active”.

For the molecule `[N-]=[N+]=N/C=C/c1ccccc1`, the inhibition entry in assay [1] is “Active”. On the same count and under the same terms, under `C#Cc1cccc(Nc2ccccc2C(N)=O)c1` stands “Active”. On to `[N-]=[N+]=NCCc1ccccc1F`, for which, in assay [1], the inhibition result is “Active”. For `[N-]=[N+]=Nc1ccc(Br)cc1`, the inhibition result in assay [1] was “Active”. As to `N#C/C(=C\c1ccc(-c2cc(Cl)ccc2Cl)o1)C(=O)Nc1cccc2ncccc12`, the inhibition result in assay [1] was “Active”. Still for that read-out and setting: for `Cc1ncsc1CCN=[N+]=[N-]` the value was “Active”.

Take `NC(=O)c1ccccc1Nc1cccc(-c2cn(CCC3CCCC3)nn2)c1`: the values for the IC50 in assay [2], in assay [5] and in assay [6] were greater than 100 µM, 5.3 µM and greater than 100 µM, respectively. Moreover, the inhibition entry in assay [3] and in assay [4] was “inactive” throughout. Besides, the inhibition result in assay [1] is “Active”.
